Data as given in ChEMBL document CHEMBL1146254, “Identification of Sansalvamide a analog potent against pancreatic cancer cell lines” (Bioorg Med Chem Lett, 2007).
Where a SMILES comes first, the peptide text is derived from it. [ ]: non-standard residue; d: D form. Cha = N[C@@H](CC1CCCCC1)C(=O)O; NMeL = CN[C@@H](CC(C)C)C(=O)O; dNMeL = CN[C@H](CC(C)C)C(=O)O; dNMeV = CN[C@@H](C(=O)O)C(C)C; dAbu = CC[C@@H](N)C(=O)O

Key:
Conditions in all cases: Homo sapiens
[1] = Cytotoxicity against PL45 cells at 5 uM by [3H]thymidine inhibition assay; format: functional, cell-based
BXPC-3 = test: Cytotoxicity against BxPC3 cells at 5 uM by [3H]thymidine inhibition assay; format: functional, cell-based
[2] = Cytotoxicity against WS1 cells; format: cell-based

SMILES	inhibition at 5 µM [1]	inhibition at 5 µM (BXPC-3)	IC50 [1]	IC50 (BXPC-3)	IC50 [2]
CC(C)C[C@@H]1NC(=O)[C@H](Cc2ccccc2)NC(=O)[C@H](CC(C)C)NC(=O)[C@@H](C(C)C)NC(=O)[C@H](CCCCNC(=O)Cc2ccccc2)NC1=O	29%	29%			
CC(C)C[C@@H]1NC(=O)[C@H](Cc2ccccc2)NC(=O)[C@@H](CC(C)C)N(C)C(=O)[C@H](CC(C)C)NC(=O)[C@H](CC(C)C)NC1=O	5%	2%			
CC(C)C[C@@H]1NC(=O)[C@H](CC(C)C)NC(=O)[C@H](CC(C)C)NC(=O)[C@@H](Cc2c[nH]c3ccccc23)NC(=O)[C@H](CC(C)C)NC1=O	18%	30%			
CC(C)C[C@@H]1NC(=O)[C@H](Cc2ccccc2)NC(=O)[C@H](CC(C)C)N(C)C(=O)[C@H](CC(C)C)NC(=O)[C@H](CC(C)C)NC1=O	27%	46%			
CC(C)C[C@@H]1NC(=O)[C@H](CC(C)C)NC(=O)[C@H](Cc2ccccc2)NC(=O)[C@@H](CC(C)C)NC(=O)[C@H](CC(C)C)NC1=O	41%	34%			
CC(C)C[C@@H]1NC(=O)[C@H](Cc2ccccc2)NC(=O)[C@H](CC(C)C)NC(=O)[C@H](CC(C)C)NC(=O)[C@H](CC(C)C)NC1=O	25%	42%	70 µM	25 µM	200 µM
CC(C)C[C@@H]1NC(=O)[C@H](CC(C)C)NC(=O)[C@H](Cc2ccccc2)NC(=O)[C@@H](CO)NC(=O)[C@H](CC(C)C)NC1=O	32%	25%			
CC(C)C[C@@H]1NC(=O)[C@H](CC(C)C)NC(=O)[C@H](Cc2ccccc2)N(C)C(=O)[C@H](CC(C)C)NC(=O)[C@H](CC(C)C)NC1=O	44%	62%	5 µM	2 µM	200 µM
CC(C)C[C@@H]1NC(=O)[C@H](CC(C)C)NC(=O)[C@H](CC(C)C)NC(=O)[C@@H](Cc2ccccc2)NC(=O)[C@H](CC(C)C)NC1=O	48%	64%	5 µM	2 µM	200 µM
CC(C)C[C@@H]1NC(=O)[C@H](CC(C)C)NC(=O)[C@H](Cc2ccccc2)NC(=O)[C@@H](Cc2ccccc2)NC(=O)[C@H](CC(C)C)NC1=O	45%	21%			
CC(C)C[C@@H]1NC(=O)[C@H](CC(C)C)NC(=O)[C@H](CC(C)C)NC(=O)[C@@H](Cc2ccc(O)cc2)NC(=O)[C@H](CC(C)C)NC1=O	46%	33%			
CC(C)C[C@@H]1NC(=O)[C@H](Cc2ccccc2)NC(=O)[C@H](CC(C)C)NC(=O)[C@@H](C(C)C)NC(=O)[C@H](CCCCN)NC1=O (cyclo(FLK[dV]L))	20%	16%			
CC[C@H]1NC(=O)[C@H](CC(C)C)NC(=O)[C@H](CC(C)C)NC(=O)[C@H](Cc2ccccc2)NC(=O)[C@H](CC(C)C)NC1=O (cyclo(FLL[dAbu]L))	12%	17%			
CC(C)C[C@@H]1NC(=O)[C@H](Cc2ccccc2)NC(=O)[C@H](CC(C)C)NC(=O)[C@@H](Cc2ccccc2)NC(=O)[C@H](CC(C)C)NC1=O (cyclo(FLL[dF]L))	33%	8%			
CC(C)C[C@@H]1NC(=O)[C@H](Cc2ccccc2)NC(=O)[C@H](CC(C)C)NC(=O)[C@@H](C(C)C)N(C)C(=O)[C@H](CC(C)C)NC1=O (cyclo(FLL[dNMeV]L))	29%	34%			
CC(C)C[C@@H]1NC(=O)[C@H](Cc2ccccc2)NC(=O)[C@H](CC(C)C)NC(=O)[C@@H](CO)NC(=O)[C@H](CC(C)C)NC1=O (cyclo(FLL[dS]L))	25%	22%			
CC(C)C[C@@H]1NC(=O)[C@H](Cc2ccccc2)NC(=O)[C@H](CC(C)C)NC(=O)[C@@H](C(C)C)NC(=O)[C@H](CC(C)C)NC1=O (cyclo(FLL[dV]L))	74%	50%	1.4 µM	5 µM	20 µM
CC(C)C[C@@H]1NC(=O)[C@H](Cc2ccccc2)NC(=O)[C@@H](CC(C)C)NC(=O)[C@@H](C(C)C)NC(=O)[C@H](CC(C)C)NC1=O (cyclo(FLL[dV][dL]))	41%	16%			
CC(C)C[C@@H]1NC(=O)[C@H](C(C)C)NC(=O)[C@H](CC(C)C)N(C)C(=O)[C@H](CC(C)C)NC(=O)[C@H](Cc2ccccc2)NC1=O (cyclo(FL[NMeL]VL))	45%	2%			
CC(C)C[C@@H]1NC(=O)[C@H](Cc2ccccc2)NC(=O)[C@H](CC(C)C)NC(=O)[C@H](C(C)C)NC(=O)[C@@H](CC(C)C)NC1=O (cyclo(FL[dL]VL))	24%	74%			
CC(C)C[C@@H]1NC(=O)[C@H](C(C)C)NC(=O)[C@H](CC(C)C)NC(=O)[C@H](CC(C)C)N(C)C(=O)[C@H](Cc2ccccc2)NC1=O (cyclo(F[NMeL]LVL))	55%	59%	3 µM	2 µM	200 µM
CC(C)C[C@@H]1NC(=O)[C@@H](C(C)C)NC(=O)[C@H](CC(C)C)NC(=O)[C@H](CC(C)C)N(C)C(=O)[C@H](Cc2ccccc2)NC1=O (cyclo(F[NMeL]L[dV]L))	26%	2%			
CC(C)C[C@@H]1NC(=O)[C@H](C(C)C)NC(=O)[C@H](CC(C)C)NC(=O)[C@@H](CC(C)C)NC(=O)[C@H](Cc2ccccc2)NC1=O (cyclo(F[dL]LVL))	73%	29%			
CC(C)C[C@@H]1NC(=O)[C@@H](C(C)C)N(C)C(=O)[C@H](CC(C)C)NC(=O)[C@@H](CC(C)C)NC(=O)[C@H](Cc2ccccc2)NC1=O (cyclo(F[dL]L[dNMeV]L))	21%	35%			
CC(C)C[C@@H]1NC(=O)[C@@H](CC(C)C)NC(=O)[C@H](Cc2ccccc2)NC(=O)[C@H](CC(C)C)NC(=O)[C@@H](C(C)C)NC1=O (cyclo(F[dL]L[dV]L))	32%	13%			
CC(C)C[C@@H]1NC(=O)[C@H](C(C)C)NC(=O)[C@H](CC(C)C)N(C)C(=O)[C@@H](CC(C)C)NC(=O)[C@H](Cc2ccccc2)NC1=O (cyclo(F[dL][NMeL]VL))	25%	71%			
CC(C)C[C@@H]1NC(=O)[C@H](C(C)C)NC(=O)[C@@H](CC(C)C)NC(=O)[C@@H](CC(C)C)NC(=O)[C@H](Cc2ccccc2)NC1=O (cyclo(F[dL][dL]VL))	51%	78%	5 µM	1.4 µM	200 µM
CC(C)C[C@@H]1NC(=O)[C@H](CC(C)C)NC(=O)[C@@H](Cc2ccccc2)NC(=O)[C@@H](CC(C)C)NC(=O)[C@@H](C(C)C)NC1=O (cyclo(LL[dV][dL][dF]))	67%	34%			
CC(C)C[C@@H]1NC(=O)[C@H](Cc2ccccc2)NC(=O)[C@H](CC(C)C)NC(=O)[C@@H](C(C)C)N(C)C(=O)[C@H](CC2CCCCC2)NC1=O (cyclo([Cha][dNMeV]LFL))	45%	52%			
CC(C)C[C@@H]1NC(=O)[C@H](C(C)C)NC(=O)[C@H](CC(C)C)NC(=O)[C@@H](CC(C)C)N(C)C(=O)[C@H](Cc2ccccc2)NC1=O (cyclo([dNMeL]LVLF))	52%	51%	3.5 µM	3.8 µM	200 µM
